From patent US7750158B2, “Cannabinoid receptor ligands” (Schering Corporation, priority 2004, dated 2010)
Like-named read-outs stand apart in the source and are kept apart here.

Columns and labels:
[1] = molecular target: T1, recombinant human cannabinoid CB2 receptor (Homo sapiens, UniProt P34972); assay: [3H] CP-55,940 competition binding to recombinant cannabinoid receptor membranes (CB2)
T1 construct: purchased Receptor Biology RB-HCB2
Description: (§1) Potential cannabinoid receptor ligands were screened for the ability to compete with [^3H] CP-55,940, which is a known receptor ligand, for binding to recombinant cannabinoid receptors. Test compounds were serially diluted in Diluent Buffer (50 mM Tris pH 7.1, 1 mM EDTA, 3 mM MgCl2, 0.1% BSA, 10% DMSO, 0.36% methyl cellulose (Sigma M-6385)) from stocks prepared in 100% DMSO. Aliquots (10 μL) were transferred into 96-well microtiter plates. Membrane preparations of recombinant human cannabinoid CB2 receptor (Receptor Biology #RB-HCB2) or recombinant human cannabinoid CB1 receptor (Receptor Biology #RB-HCB1) were diluted to 0.3 mg/mL in Binding Buffer (50 mM Tris pH 7.2, 1 mM EDTA, 3 mM MgCl2, 0.1% BSA). Aliquots (50 μL) were added to each well of the microtiter plate. The binding reactions were initiated by addition of [^3H] CP-55,940 (New England Nuclear #NET 1051; specific activity=180 Ci/mmol) to each well of the microtiter plate. Each 100 μl reaction mixture contained 0.48 nM [^3H] CP-55,940, 15 μg membrane protein in binding buffer containing 1% DMSO and 0.036% methyl cellulose. Following incubation for 2 hours at room temperature, the reactions were filtered through 0.5% polyethylenimine-coated GF/C filter plates (UniFilter-96, Packard) with a TomTec Mark 3U Harvester (Hamden, Conn.). The filter plate was washed 5 times with binding buffer, rotated 180°, then re-washed 5 times with binding buffer. Bound radioactivity was quantitated following addition of 30 μl of Packard Microscint 20 scintillant in a Packard TopCount NXT microplate scintillation counter. Non-linear regression analysis of the resulting data was performed using Prism 2.0b (GraphPad, San Diego, Calif.).
The activities (potencies) for the compounds of the invention are determined by measuring their Ki values.

[2] = molecular target: T2, recombinant human cannabinoid CB1 receptor (Homo sapiens, UniProt P21554); assay: [3H] CP-55,940 competition binding to recombinant cannabinoid receptor membranes (CB1), reported as the CB1/CB2 selection ratio; settings: Ki CB1 / Ki CB2, same binding assay
T2 construct: purchased Receptor Biology RB-HCB1
Description: as §1

[3] = 0.48 nM [3H] CP-55,940, 15 μg membrane protein, 2 hours at room temperature, read-out: Ki values (CB2 receptor)

T2 sequence (P21554 whole entry): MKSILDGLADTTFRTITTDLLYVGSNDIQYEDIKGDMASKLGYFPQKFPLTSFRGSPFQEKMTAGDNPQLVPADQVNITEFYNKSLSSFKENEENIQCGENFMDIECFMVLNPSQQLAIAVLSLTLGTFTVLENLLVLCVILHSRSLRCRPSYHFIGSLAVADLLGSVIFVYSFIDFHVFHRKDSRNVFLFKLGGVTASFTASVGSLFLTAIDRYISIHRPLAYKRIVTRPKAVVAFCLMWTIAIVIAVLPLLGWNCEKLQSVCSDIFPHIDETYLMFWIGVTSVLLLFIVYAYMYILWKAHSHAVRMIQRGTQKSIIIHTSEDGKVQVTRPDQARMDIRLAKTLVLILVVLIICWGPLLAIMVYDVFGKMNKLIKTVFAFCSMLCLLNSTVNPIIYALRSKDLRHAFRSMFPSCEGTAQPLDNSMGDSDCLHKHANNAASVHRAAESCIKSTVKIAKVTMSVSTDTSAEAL
T1 sequence (P34972 whole entry): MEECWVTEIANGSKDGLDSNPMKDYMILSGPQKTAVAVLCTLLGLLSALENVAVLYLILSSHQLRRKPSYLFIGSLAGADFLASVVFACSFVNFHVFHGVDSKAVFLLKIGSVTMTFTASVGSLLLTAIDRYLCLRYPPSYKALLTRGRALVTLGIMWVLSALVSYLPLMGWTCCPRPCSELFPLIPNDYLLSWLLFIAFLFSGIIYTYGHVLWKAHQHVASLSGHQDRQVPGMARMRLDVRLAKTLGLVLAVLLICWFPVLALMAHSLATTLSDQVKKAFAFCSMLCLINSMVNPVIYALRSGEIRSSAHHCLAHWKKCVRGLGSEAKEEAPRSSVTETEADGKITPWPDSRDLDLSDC

| Ki [1, 3] | selection ratio of the Ki value of the CB1 receptor to that of the CB2 receptor [2] | Structure (SMILES) | Ki [1] |
| --- | --- | --- | --- |
| 0.24 nM | about 15000 | CS(=O)(=O)NC1CC12CCN(S(=O)(=O)c1cc3ccccc3n1S(=O)(=O)c1ccccc1F)CC2 (racemic) [compound 20] | – |
| 1.5 nM | ~6300 | O=S(=O)(c1ccccn1)c1cc(Cl)ccc1S(=O)(=O)N1CC2C(CNS(=O)(=O)C(F)(F)F)C2C1 (stereo not shown) [compound 6] | – |
| 0.65 nM | ~2700 | CS(=O)(=O)NCC1C2CN(S(=O)(=O)c3ccc(Cl)cc3S(=O)(=O)c3ccccc3F)CC12 (stereo not shown) [compound 9] | – |
| 1.46 nM | about 1000 | O=S(=O)(c1ccccc1F)c1cc(Cl)ccc1S(=O)(=O)N1CC2C(CNS(=O)(=O)C(F)(F)F)C2C1 (stereo not shown) [compound 11] | – |
| 1 nM | ~3400 | CS(=O)(=O)NCC1C2CN(S(=O)(=O)c3cc4ccccc4n3S(=O)(=O)c3ccccc3F)CC12 (stereo not shown) [compound 13] | – |
| 1 nM | ~400 | O=S(=O)(c1cc2ccccc2n1S(=O)(=O)c1ccccc1F)N1CCC2(CC1)C[C@@H]2NS(=O)(=O)C(F)(F)F [compound 22] | – |
| 0.4 nM | ~3500 | O=S(=O)(c1cc2ccccc2n1S(=O)(=O)c1ccccn1)N1CCC2(CC1)CC2NS(=O)(=O)C(F)(F)F (stereo not shown) [compound 41] | – |
| 3.3 nM | ~4100 | O=S(=O)(c1cc2cccnc2n1S(=O)(=O)c1ccccc1F)N1CC2C(CNS(=O)(=O)C(F)(F)F)C2C1 (stereo not shown) [compound 60] | – |

Further lines, the molecule ahead of its results:

| Structure (SMILES) | Ki [1, 3] | selection ratio of the Ki value of the CB1 receptor to that of the CB2 receptor [2] | Ki [1] |
| --- | --- | --- | --- |
| O=S(=O)(c1ccccn1)c1cc(C(F)(F)F)ccc1S(=O)(=O)N1CCC2(CC1)CC2NS(=O)(=O)C(F)(F)F (stereo not shown) [compound 31] | – | ~71 | 5 nM |
| CS(=O)(=O)NCC1CC2CCC(C1)N2S(=O)(=O)c1cc2ccccc2n1S(=O)(=O)c1ccccc1F (stereo not shown) [compound 47] | – | ~790 | 7 nM |
| CCC1(CNCC(F)(F)F)CC2CCC(C1)N2S(=O)(=O)c1ccc(Cl)cc1S(=O)(=O)c1ccccn1 (stereo not shown) [compound 58] | – | ~770 | 41 nM |
| CCC1(CNS(=O)(=O)C(F)(F)F)CC2CCC(C1)N2S(=O)(=O)c1ccc(Cl)cc1S(=O)(=O)c1ccccn1 (stereo not shown) [compound 59] | – | ~52 | 25.9 nM |
| Cn1c(S(=O)(=O)N2CCC3(CC2)CC3NS(=O)(=O)C(F)(F)F)c(S(=O)(=O)c2ccccc2F)c2ccccc21 (stereo not shown) [compound 61] | – | ~1200 | 3.9 nM |
| CC(C)n1c(S(=O)(=O)N2CC3C(CNC(=O)OC(C)(C)C)C3C2)c(S(=O)(=O)c2ccccc2F)c2ccccc21 (stereo not shown) [compound 62] | – | ~1.9 | 28 nM |
